From PubChem BioAssay (NCI)
Several values for one entry are separate records, joined by “and”; a condition that tells them apart may be missing. Identical values can stand only once.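 How tested: cells in 96-well plates exposed to compound for 48 hours at five concentrations. Here, GI50 denotes the concentration required for 50% inhibition of growth. At the TGI there is no net growth.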 *1 amine or outer side, *2 acyl side, *3 side chain or, on linkers, in order; H or OH if unused. Where a SMILES comes first, the peptide text is derived from it. Bridges are numbered along the chain shown (N, C = ends). Roman numbers before positions name the chains, in order. [ ]: non-standard residue; d: D form. Actinocin(1to9) = Cc1c2oc3c(C)ccc(C(=O)[*:2])c3nc-2c(C(=O)[*:1])c(N)c1=O; NMeV = CN[CH](C(=O)O)C(C)C; Sar = CNCC(=O)O

Assays:
Assay in all cases: NCI tumour cell line growth inhibition, 48 h
[1] = test system: A549 NSCLC
[2] = test system: HT29 colon
[3] = test system: DU-145 prostate
[4] = test system: HOP-62 NSCLC
[5] = test system: HCC-2998 colon
[6] = test system: MDA-MB-435
[7] = test system: RPMI-8226 leukemia
[8] = test system: HL-60(TB) leukemia
[9] = test system: MDA-MB-231 breast
[10] = test system: MOLT-4 leukemia
[11] = test system: SW-620 colon
[12] = test system: HCT-15 colon
[13] = test system: NCI/ADR-RES ovarian
[14] = test system: A498 renal
[15] = test system: UACC-62 melanoma
[16] = test system: BT-549 breast

Row | Structure (SMILES) | TGI [1] [µM] | TGI [2] | TGI [3] [µM] | TGI [4] | TGI [5] [µM] | TGI [6] [µM] | TGI [7] [µM] | TGI [8] [µM] | TGI [9] [µM] | TGI [10] [µM] | TGI [11] [µM] | TGI [12] [µM] | TGI [13] [µM] | TGI [14] [µM] | TGI [15] | TGI [16] [µM] | GI50 [5] [nM]
1 | Cc1cc2c(cc1Cl)SC(NNC(=O)c1ccccc1)=NS2(=O)=O | > 10 | > 10 µM | > 10 | > 10 µM | > 10 | > 10 | > 10 | > 10 | > 10 | > 10 | > 10 | > 10 | > 10 | > 10 | > 10 µM | > 10 | 
2 | CN1CC=C(C#CC(C)(C)O)CC1 | > 37.5 | > 37.5 µM | > 37.5 | > 37.5 µM | > 37.5 | > 37.5 | > 37.5 | > 37.5 | > 37.5 | > 37.5 | > 37.5 | > 37.5 | > 37.5 |  | > 37.5 µM | > 37.5 | 
3 | O=C(NCCc1ccccn1)c1ccc2cc(C(=O)N3CC(CCl)c4ccc([N+](=O)[O-])cc43)[nH]c2c1 (centres undefined) | > 100 | > 100 µM | > 100 | 48.4 µM | > 100 | > 100 | > 100 | > 100 | > 66.8 | > 100 | > 100 | > 100 | > 100 | > 100 | > 67.4 µM | > 100 | 
4 | CC(=O)Nn1c(Cc2ccc(Cl)cc2)nn(C)c1=O | > 100 | > 100 µM | > 100 | > 100 µM | > 100 | > 100 | > 100 | > 100 | > 100 | > 100 | > 100 | > 100 | > 100 | > 100 | > 100 µM | > 100 | 
5 | Cc1ccc(NC(=O)CC(=O)N2N=C(N(c3ccccc3)c3ccccc3)CC2c2ccccc2)cc1 (centres undefined) | > 100 | > 100 µM | > 100 | > 100 µM | > 100 | > 100 | > 100 | > 100 | > 100 | > 100 | > 100 | > 100 | > 100 | > 100 | > 100 µM | > 100 | 
6 | COC(=O)c1cc(C#N)[nH]c1-c1ccc(Br)s1 | 23 | 24.8 µM | 31.6 | 21.4 µM | 31.8 | 34.5 | > 73.3 | 36.5 | 30.7 | 64.9 | 29.9 | 28 | 30.6 | 9.9 | 26 µM | 22.8 | 
7 | O=C(c1ccc(Cl)c(Cl)c1)N(C(=S)OC12CC3CC(CC(C3)C1)C2)c1ccccc1 | > 100 | > 100 µM | > 100 | > 100 µM | > 100 | > 100 |  | 69.9 | > 100 |  | > 100 | > 100 | > 100 | > 100 | 98.5 µM | > 100 | 
8 | CC(/C=C/c1ccccc1)=N\NC(=S)N/N=C(C)/C=C/c1ccccc1 | > 100 | > 100 µM | > 100 | 57.7 µM | > 100 | > 100 |  | > 100 | 33.9 | > 100 | > 100 | > 100 | 99.5 | 7.51 | > 100 µM | 56.7 | 
9 | Cc1c(CN2CCOCC2)c(CN2CCOCC2)c(C)n1-c1ccc(Cl)cn1 | > 100 | > 100 µM | > 100 | > 100 µM | > 100 | > 100 | > 100 |  | > 100 | > 100 | > 100 | > 100 | > 100 | > 100 | > 100 µM | > 100 | 
10 | COc1ccc(CC2NC(=O)C(NC(=O)c3c4nc5c(C(=O)NC6C(=O)NC(Cc7ccc(OC)cc7)C(=O)N7CCCC7C(=O)N(C)CC(=O)N(C)C(C(C)C)C(=O)OC6C)ccc(C)c5oc-4c(C)c(=O)c3N)C(C)OC(=O)C(C(C)C)N(C)C(=O)CN(C)C(=O)C3CCCN3C2=O)cc1 (centres undefined) (I: TY(Me)P[Sar][NMeV] / II: TY(Me)P[Sar][NMeV]; ester I:1-I:C, II:1-II:C; linker I:N-II:N via Actinocin(1to9); configuration not given here) |  | 0.0174 µM and 0.0463 µM | 0.0843 | 0.0405 µM and 0.236 µM |  | 0.0265 |  | < 0.001 | 0.731 |  |  |  |  | 0.0242 | 0.00628 µM and 0.0307 µM | 0.0254 | 13
11 | CCc1n[nH]c(=O)n1-n1c(C)ccc1C | > 100 | > 100 µM | > 100 | > 100 µM | > 100 | > 100 | > 100 |  | > 100 | > 100 | > 100 | > 100 | > 100 | > 100 | > 100 µM | > 100 | 
12 | CC(=O)OC[C@@]1(C)[C@@H]2[C@@H]3[C@@]4(CO[C@]3(C)C(=O)[C@@]3(OC(C)=O)C[C@H](C)[C@H](OC(C)=O)[C@@H]3[C@H]4OC(C)=O)[C@H](OC(=O)c3ccccc3)C[C@@H]21 | > 100 | > 100 µM | > 100 | > 100 µM | > 100 | > 100 | > 100 | > 100 | > 100 |  | > 100 | > 100 | > 100 | > 100 | > 100 µM | > 100 | 
13 | Cn1c(=O)oc2cc(C(O)CN3CCN(Cc4ccc5c(c4)OCO5)CC3)ccc21 (centres undefined) | > 100 | > 100 µM | > 100 | > 100 µM | > 100 | > 100 |  | > 100 | > 100 | > 100 | > 100 | > 100 | > 100 | > 100 | > 100 µM | > 100 | 
14 | C#CCNCC(=O)O | > 100 | > 100 µM | > 100 | > 100 µM | > 100 | > 100 | > 100 |  | > 100 | > 100 | > 100 | > 100 | > 100 | > 100 | > 100 µM | > 100 | 
